This passage reports RP-LC retention time results from the METLIN SMRT retention time set (Domingo-Almenara et al. 2019).

This data set can be described thus: gradient 5% acetonitrile 3 min, to 50% in 2 min, to 85% in 15 min, held 3 min, 100 µL/min. To be noted: column: Zorbax Extend-C18 2.1 x 50 mm; eluents: water / acetonitrile, 0.1% formic acid. The procedure, abridged:
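A Zorbax Extend-C18 column (2.1 × 50 mm, 1.8 μm) run at 100 μL/min with water and acetonitrile, both containing 0.1% formic acid, separated mixtures of ~100 pure standards. The HPLC was coupled to a quadrupole time-of-flight mass spectrometer operated in positive and negative ionization mode, with dead and dwell volumes of 40 μL and 900 μL. Each retention time was taken from a computationally picked adduct peak that was then manually inspected.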
`COCCCNC(=O)Cn1c(=O)n(-c2ccccc2)c2ncccc21` registered an RP-LC retention time of 650 s.

As for `Cc1cc(C)n(-c2ccnc(NCCC3=CCCCC3)n2)n1`, the RP-LC retention time amounted to 975 s.

Consider `Cc1nc(C2CN(S(=O)(=O)c3cc(F)ccc3F)CC23CCOCC3)no1` (stereo not given), for which the RP-LC retention time was determined as 834 s.

`O=C(NCc1ccc(F)cc1F)C1=C2CCCN2c2ccc(F)cc2S1(=O)=O` came in with an RP-LC retention time of 895 s.

With `Cc1nc(Nc2ccc(NC(=O)COc3ccc(Cl)cc3)cc2)cc(-n2ccnc2)n1`, the RP-LC retention time was found to be 646 s.

As for `COCCNC(=O)c1nc(-c2ccnc(N3CCC(C)CC3)c2)no1`, the RP-LC retention time was determined as 670 s.

As for `CCc1cccc(N2C=C(C(=O)N3CCOCC3)S(=O)(=O)c3ccc(F)cc32)c1`, the RP-LC retention time is 858 s.

As to `O=C(Nc1ccc(N2CCCCCC2)c(C(=O)O)c1)c1cccs1`, the RP-LC retention time came out at 657 s.

`COC(=O)c1cn(CC(=O)Nc2cc(Cl)ccc2OC)c2nc(C)ccc2c1=O` had an RP-LC retention time of 780 s.

For `Cc1nc(-c2ccc(N3CCN(C(=O)c4cccc(F)c4)CC3)nc2)sc1C`, the RP-LC retention time was determined as 921 s.

`CN(C)C(CNC(=O)c1cc(=O)c2cc(Cl)ccc2o1)c1cccs1` (stereo not given): the RP-LC retention time was 631 s.

In turn, `CCC1=NS(=O)(=O)c2cccnc2N1c1ccc(Br)cc1` registered an RP-LC retention time of 903 s.

`Cn1c(=O)oc2cc(-c3noc(CNC(=O)Cc4ccccc4)n3)ccc21` came in with an RP-LC retention time of 760 s.

Molecule `O=C(C1CCN(c2nnc(-c3ccccc3)o2)CC1)N1CCOCC1` registered an RP-LC retention time of 668 s.

`O=C(Cn1nc(N2CCSCC2)c2ccccc2c1=O)Nc1cccc(Br)c1` came in with an RP-LC retention time of 1030 s.

For `CCOc1ccccc1NC(=O)N1CCN(c2ccc(=O)n(-c3ccc(C)cc3)n2)CC1`, the RP-LC retention time is 915 s.

Turning to `Cc1csc(-c2ccc(CNC(=O)c3cc(F)cc(F)c3)cc2)n1`, the RP-LC retention time stood at 939 s.

Molecule `CCn1nccc1-c1cccc(-c2noc(C3CC(=O)N(c4ccc(C)cc4)C3)n2)c1` (stereo not given) yielded an RP-LC retention time of 1010 s.

`Cc1cccc(S(=O)(=O)N2C[C@@H](F)C[C@H]2C(=O)N2CCc3ccccc3C2)c1` returned an RP-LC retention time of 906 s.

Molecule `COc1ccc(C(=O)N2CCC(COc3ccc(C(=O)NC(C)C)cc3)CC2)c(C)c1` displayed an RP-LC retention time of 851 s.

`CC(CNC(=O)C1CCN(S(=O)(=O)c2ccc3c(c2)CCCC(=O)N3)CC1)c1ccccc1` (stereo not given) came in with an RP-LC retention time of 766 s.

In the case of `CCCn1cc(-c2ccncc2)cc1C(=O)NC1CCCCC1`, the RP-LC retention time was 685 s.

`O=C(c1ccc(CS(=O)c2ccccc2Cl)o1)N1CCN(c2ccccn2)CC1` (stereo not given) came in with an RP-LC retention time of 604 s.

`Cc1ccc(C)c(C(=O)N2CCN(c3nc4cccnc4o3)CC2)c1` displayed an RP-LC retention time of 765 s.

As to `CCn1cc(CCN2CCN(S(=O)(=O)c3cccc(C#N)c3)CC2)c2cccnc21`, the RP-LC retention time was found to be 635 s.

Take `O=C(CN1C(=O)CC(c2ccccc2)=Nc2cccnc21)Nc1ccc(Cl)cc1`: the RP-LC retention time stood at 1010 s.

For the molecule `CC(=O)N(C)c1ccc(NC(=O)c2c(-c3ccccc3Cl)noc2C)cc1`, the RP-LC retention time was 774 s.

Take `CSc1cccc(NC(=O)Cn2nc(C(=O)N3CCOCC3)cc2C2CC2)c1`: the RP-LC retention time was found to be 742 s.

For `CCCNC(=O)C1CCN(C(=O)CCc2c(C)[nH]c(C(=O)OCC)c2C)CC1`, the RP-LC retention time came out at 679 s.

On to `COc1ccc(N2CC(c3nc(-c4ccc(C)cc4)no3)CC2=O)c(OC)c1` (stereo not given), for which the RP-LC retention time came to 888 s.

In turn, `COc1cc(OC)c(NC(=O)N(C)Cc2nc3cc(C(=O)N4CCCC4)ccc3n2C)cc1Cl` returned an RP-LC retention time of 640 s.

`CC(C)c1nncn1C1CCN(S(=O)(=O)c2cccc(F)c2)CC1` returned an RP-LC retention time of 707 s.

Consider `O=C(CNC(=O)C1CCCCC1)Nc1nc2ccccc2[nH]1`, for which the RP-LC retention time is 619 s.

`CCOc1ccc(S(=O)(=O)N2CCC(C(=O)Nc3ccc(C(N)=O)cc3)CC2)cc1C`: the RP-LC retention time is 782 s.

For `CN1c2cc(C(=O)NCc3cc(F)cc(F)c3)ccc2C(=O)N2CCCCC21` (stereo not given), the RP-LC retention time was 844 s.

The molecule `CC(C)c1noc(C2(NC(=O)c3ccc(F)cc3)CCCCC2)n1` registered an RP-LC retention time of 1010 s.

In turn, `COc1cccc(NC(=O)Cn2nc3c(Oc4ccc(F)cc4)nccn3c2=O)c1` returned an RP-LC retention time of 812 s.

`COc1ccc(CN2C=C(C(=O)OCc3noc(C)n3)C(C)=NS2(=O)=O)cc1`: the RP-LC retention time came to 873 s.

For the molecule `Cc1c(CC(=O)N2CCN(c3cccc(Cl)c3)CC2)c2c(=O)n(C)c(=O)n(C)c2n1C`, the RP-LC retention time came to 790 s.

For the molecule `O=C(NCC(O)C1CCCCC1)c1cccc2ccccc12` (stereo not given), the RP-LC retention time was 802 s.

With `Cc1ccc(C)c(NC(=O)C2CCN(S(=O)(=O)c3ccc4c(c3)NC(=O)C(C)O4)CC2)c1` (stereo not given), the RP-LC retention time was 824 s.

The molecule `NS(=O)(=O)c1ccc(CCNS(=O)(=O)c2cc(-c3ccno3)cs2)cc1` showed an RP-LC retention time of 748 s.

In turn, `Cc1sc(-c2cc(C(F)(F)F)on2)cc1S(=O)(=O)Nc1ccccc1` displayed an RP-LC retention time of 1130 s.

Take `COc1ccc(C2Cn3nnc(-c4nc(-c5ccc(C)c(C)c5)no4)c3CO2)cc1` (stereo not given): the RP-LC retention time worked out at 1270 s.

As to `c1cc(-c2noc(C3CCC3)n2)cc(N2CCOCC2)n1`, the RP-LC retention time was determined as 804 s.

The molecule `CCOc1ccccc1NC(=O)Cc1c(C)nn(-c2nc(-c3ccc(F)cc3)cs2)c1C` showed an RP-LC retention time of 1290 s.

In the case of `Cn1cc(C2=C(c3cn(C4CCN(Cc5ccccn5)CC4)c4ccccc34)C(=O)NC2=O)c2ccccc21`, the RP-LC retention time was 753 s.

`Cc1cc(C)cc(NC(=O)C(C)C2CCN(C(=O)Nc3ccc(F)cc3)CC2)c1` (stereo not given) gave an RP-LC retention time of 917 s.

For the molecule `O=C(NCC1CCN(C(=O)c2ccccc2F)CC1)C(=O)Nc1ccon1`, the RP-LC retention time amounted to 636 s.

`CC(C)c1noc(-c2cccnc2N2CCCN(Cc3ccccc3Cl)CC2)n1` displayed an RP-LC retention time of 723 s.

The molecule `CCn1ccc(C(=O)Nc2ccc3ncnc(N4CCCC4)c3c2)n1` came in with an RP-LC retention time of 616 s.

Molecule `COc1ccccc1-c1nc2cnccn2c1NCCC(=O)Nc1ccc2c(c1)OCCO2` showed an RP-LC retention time of 672 s.

`COc1ccc(NC(=O)CSc2cc(N3CCN(c4ccccc4OC)CC3)ncn2)cc1Cl` registered an RP-LC retention time of 981 s.

Turning to `C[C@H]1CN(C(=O)Nc2ccc3c(c2)CCC3)C[C@@H]1c1nc(-c2cccnc2)no1`, the RP-LC retention time stood at 866 s.

Take `CCn1c(=O)c(N2CCCC(C(=O)N3CCN(c4cccc(C)c4C)CC3)C2)nc2ccccc21` (stereo not given): the RP-LC retention time amounted to 1350 s.

For `Cc1ccc(S(=O)(=O)N2CCC3(CC2)c2nccn2CCN3C)cc1F`, the RP-LC retention time was 654 s.

Turning to `Cc1ccc(-c2nnc(CC(=O)NCCC(C)C)o2)cc1`, the RP-LC retention time was found to be 829 s.

Regarding `CCC(CC)C(=O)NCCc1c[nH]c2ccc(C)cc12`, the RP-LC retention time is 860 s.

Molecule `CCn1cc(-c2nc(CC(=O)N3CCN(c4ccccc4F)CC3)cs2)c2cccnc21` registered an RP-LC retention time of 976 s.

`O=C(Cc1csc(NC(=O)c2cnccn2)n1)NCCc1c[nH]c2ccccc12` had an RP-LC retention time of 654 s.

In the case of `Cn1nc(C2CCCNC2)n(Cc2ccccc2)c1=O` (stereo not given), the RP-LC retention time was determined as 556 s.

In the case of `O=C(Nc1cc(-c2ccccn2)no1)c1cccc(F)c1`, the RP-LC retention time came to 791 s.

In turn, `CCCCNC(=O)Cn1c(C)nc2onc(CC)c2c1=O` showed an RP-LC retention time of 726 s.

As for `CC(=O)N1CCc2cc(C)c(S(=O)(=O)N3CCOCC3)cc21`, the RP-LC retention time turned out to be 708 s.

For the molecule `CC(=O)N1CCC(C(=O)NC2CCCN(c3cc(-c4ccc(Cl)cc4)[nH]n3)C2)CC1` (stereo not given), the RP-LC retention time is 655 s.

Turning to `CCCCCNC(=O)C1CCCN(S(=O)(=O)c2cc(Cl)ccc2OC)C1` (stereo not given), the RP-LC retention time worked out at 960 s.

For the molecule `O=C1COc2ccc(-c3csc(NC(=O)c4ccc(F)cc4)n3)cc2N1`, the RP-LC retention time amounted to 838 s.

For `COc1ccc(-c2noc(C3CCCN3C(=O)c3ccoc3)n2)cc1` (stereo not given), the RP-LC retention time came out at 835 s.

`CCc1ccc(NS(=O)(=O)c2cc(-c3c(CC)noc3NC(C)=O)ccc2OC)cc1` returned an RP-LC retention time of 802 s.

On to `Cc1cc(C)c(-c2noc(C)n2)c(NC(=O)c2cccc(Br)c2)n1`, for which the RP-LC retention time came to 820 s.

In turn, `Cc1cc(OCC(O)CN2CCN(C)CC2)ccc1Cl` (stereo not given) showed an RP-LC retention time of 558 s.

With `CC1=C(c2ccc(F)cc2)S(=O)(=O)N=C1N1CCCN(C(=O)C2CCOC2)CC1` (stereo not given), the RP-LC retention time stood at 886 s.

The molecule `COc1ccc(-c2cc(N3CCC(NC(=O)c4ccc(OC)c(OC)c4)C3)n[nH]2)cc1` (stereo not given) had an RP-LC retention time of 655 s.

`Cc1ccc(N2CCC(N)C2=O)cc1C` (stereo not given): the RP-LC retention time was found to be 584 s.

For `Cc1ccc(-c2nc3cnccn3c2Nc2cccc(C)c2C)cc1`, the RP-LC retention time was 1040 s.

Molecule `COc1ccc(CCNc2nc(-c3ccc(OC)c(OC)c3)cs2)cc1OC` showed an RP-LC retention time of 728 s.

Regarding `COc1ccccc1/C=C/c1nc(C#N)c(NCCN(C)C)o1`, the RP-LC retention time is 648 s.

In turn, `CN(C)c1ncncc1N1CCC(C(=O)N2CCN(c3ccccc3F)CC2)CC1` had an RP-LC retention time of 650 s.

`COc1ccccc1-c1noc(Cn2ncn3nc(-c4ccc(Br)cc4)cc3c2=O)n1`: the RP-LC retention time was 1110 s.

`CCc1nc(N)n(CC(=O)Nc2cc(C)ccc2C)c(=O)c1C` displayed an RP-LC retention time of 643 s.
